We go through 60 compounds from PubChem BioAssay AID687005 (Broad Institute, 2013).

Results filed as inconclusive are left out. The source made the active and inactive calls.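 The calls were made as follows: active = Compounds that reduce signal, with fitted half-maximal dose at or under twice the top valid tested dose; inconclusive = Poor fit, or flat curve losing 30 to 70% of signal; inactive = Potency past limit, flat within 30%, or opposite direction.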

The first experiment can be described thus: viability loss in HEK293T cells – cell-based, ATP luminescence, cherry-pick samples, cytotoxicity control, dose response (AID 687005). As to conditions: HEK293T viability, ATP luminescence (CellTiter-Glo), 48 h; at 23.5 µM (top of the series). On the technique in general: In ATP-based viability assays light output follows the ATP content of the culture.
As for `Cc1noc(C)c1S(=O)(=O)Nc1ccc2c(c1)CC(=O)N([C@H](C)CO)C[C@H](C)[C@H](CN(C)S(=O)(=O)c1cccs1)O2`, the activity change, negative = cytotoxicity was -4.72% (inactive).
As to `C[C@H](CO)N1C[C@H](C)[C@@H](CN(C)C(=O)c2ccncc2)OCCCC[C@H](C)Oc2ccc(NC(=O)Cc3ccccc3)cc2C1=O`, the activity change, negative = cytotoxicity is -0.45% (inactive).
For `COc1ccccc1-c1ccc([C@H]2[C@@H](C#N)N(C(=O)C3CC3)[C@@H]2CO)cc1`, the activity change, negative = cytotoxicity is 27.7% (inactive).
The same measure, in the same setting: the same measure for `COc1ccc(NC(=O)N(C)C[C@@H]2OCCCC[C@@H](C)Oc3ccc(NC(=O)Nc4ccc5c(c4)OCO5)cc3C(=O)N([C@@H](C)CO)C[C@H]2C)cc1`: -17% (inactive).

The same experiment, now with this note: HEK293T viability, ATP luminescence (CellTiter-Glo), 48 h; at 26 µM (top of the series).
Turning to `Cc1ccc(C)c(NC(=O)C2CCCN2C(=O)NC2CCCCC2)c1` (stereo not given), the activity change, negative = cytotoxicity was 25.9% (inactive).
`O=c1nc(-c2ccccc2)c2ccccc2[nH]1`: the activity change, negative = cytotoxicity is 1.46% (inactive).
The same measure, in the same setting: the same measure for `Cc1cc(C(=O)NC(=S)Nc2ccccc2N2CCOCC2)ccc1[N+](=O)[O-]`: -23.2% (inactive); for `Fc1ccccc1NC(=S)NCCc1cccc(Cl)c1`: 1.09% (inactive); for `CC(C)NC(=O)NCC[C@H]1CC[C@H](NC(=O)CN(C)C)[C@H](CO)O1`: 7.79% (inactive).
The same measure, in the same setting: for `O=C(CSc1ncnc2c1cnn2-c1ccc(Cl)cc1)NCc1ccc2c(c1)OCO2` the value was -9.56% (inactive); for `C[C@@H]1CN([C@H](C)CO)C(=O)CCCn2cc(nn2)CO[C@@H]1CN(C)C(=O)CCCN(C)C`, -5.89% (inactive).
As for `CCCCN1C(=S)NC[C@@H]1Cc1ccccc1`, the activity change, negative = cytotoxicity was 6.24% (inactive).
The same measure, in the same setting: the same measure for `C[C@H](CO)N1C[C@H](C)[C@H](CN(C)C(=O)c2ccccn2)Oc2ncc(-c3ccccc3)cc2C1=O`: -0.807% (inactive); for `CC(C)NC(=O)Nc1ccc2c(c1)C(=O)N([C@@H](C)CO)C[C@H](C)[C@@H](CN(C)C(=O)CCC(F)(F)F)OCCCC[C@H](C)O2`: 42.8% (inactive); for `O=C(C[C@H]1CC[C@@H](NC(=O)c2ccc3c(c2)OCO3)[C@@H](CO)O1)NCc1ccc(F)cc1`: -2.35% (inactive).
With `C[C@H](CO)N1C[C@H](C)[C@@H](CN(C)Cc2ccc(Oc3ccccc3)cc2)Oc2ccc(NS(=O)(=O)c3cn(C)cn3)cc2CC1=O`, the activity change, negative = cytotoxicity was -30.9% (inactive).
On to `Cc1ccc(S(=O)(=O)N[C@H]2CC[C@H](CCNC(=O)C3CCCC3)O[C@@H]2CO)cc1`, for which the activity change, negative = cytotoxicity is -7.25% (inactive).
On the same count and under the same terms, the same measure for `CC(C)CC#Cc1cnc2c(c1)C(=O)N([C@@H](C)CO)C[C@H](C)[C@H](CN(C)C(=O)c1ccc3c(c1)OCO3)O2`: 16.5% (inactive); for `CC(C)NC(=O)N(C)C[C@H]1Oc2c(NC(=O)C3CCCCC3)cccc2C(=O)N([C@H](C)CO)C[C@H]1C`: 5.22% (inactive).
Still for that read-out and setting: the same measure for `Cc1ccc(C)c(NC(=O)C2(C)CCN2C(=O)C(C)C)c1` (stereo not given): -19.7% (inactive); for `CO[C@@H]1CN(C)C(=O)c2cc(NC(=O)Nc3cccc(F)c3)ccc2OC[C@H](C)N(C)C[C@@H]1C`: -0.56% (inactive).
Regarding `C[C@H]1CN([C@@H](C)CO)S(=O)(=O)c2ccc(Br)cc2O[C@@H]1CN(C)C(=O)CCN1CCCCC1`, the activity change, negative = cytotoxicity was 38.4% (inactive).
`C[C@H](CO)N1C[C@H](C)[C@@H](CN(C)S(=O)(=O)c2ccccc2)Oc2c(NC(=O)Nc3cccc4ccccc34)cccc2C1=O`: the activity change, negative = cytotoxicity is 35.2% (inactive).
On to `COc1ccc(C(=O)NC(=S)Nc2ccccc2N2CCOCC2)cc1[N+](=O)[O-]`, for which the activity change, negative = cytotoxicity was -32.3% (inactive).
The same measure, in the same setting: for `COc1cc(C(=O)Oc2ccccc2N)cc(OC)c1OC` the value was 1.38% (inactive); for `CCNC(=O)Nc1ccc2c(c1)C(=O)N(C)[C@H]1CC[C@H](CC(=O)N[C@@H](C)c3ccccc3)O[C@H]1CO2`, 75.7% (inactive).
For `O=C([C@@H]1[C@@H](CO)[C@@H]2Cn3c(cccc3=O)[C@H]1N2Cc1cccc(Cl)c1)N1CCOCC1`, the activity change, negative = cytotoxicity was -9.53% (inactive).
On to `CNC[C@H]1Oc2ccc(NC(=O)Cc3cn(C)c4ccccc34)cc2CC(=O)N([C@@H](C)CO)C[C@H]1C`, for which the activity change, negative = cytotoxicity is 27% (inactive).
Same read-out and setting: for `CNC(=O)C[C@@H]1CC[C@H]2[C@@H](COC[C@H](O)CN2C(=O)Nc2ccc3c(c2)OCO3)O1` the value was -5.64% (inactive); for `C[C@H](CO)N1C[C@H](C)[C@H](CN(C)C(=O)NC2CCCCC2)OCCCC[C@H](C)Oc2ccc(NS(=O)(=O)c3cn(C)cn3)cc2C1=O`, 3.14% (inactive).
Consider `Cc1noc(C)c1S(=O)(=O)Nc1ccc2c(c1)C(=O)N([C@@H](C)CO)C[C@H](C)[C@@H](CN(C)Cc1ccc3c(c1)OCO3)OCCCC[C@@H](C)O2`, for which the activity change, negative = cytotoxicity was 45.4% (inactive).
In the case of `C[C@H]1CN([C@@H](C)CO)C(=O)c2cccc(NS(=O)(=O)c3ccc(Cl)cc3)c2O[C@@H]1CN(C)CC1CC1`, the activity change, negative = cytotoxicity is 18% (inactive).
Still for that read-out and setting: the same measure for `CCCNC(=O)C[C@H]1C[C@H]2c3cc(NC(=O)Nc4ccc(OC)cc4)ccc3O[C@H]2[C@@H](CO)O1`: -21% (inactive); for `Cc1ccccc1OCC(=O)NC(C)c1ccccc1` (stereo not given): -29.9% (inactive); for `CC(C)NC(=O)N[C@H]1CC[C@@H](CCNC(=O)C2CC2)O[C@@H]1CO`: -21.3% (inactive).
On the same count and under the same terms, for `C[C@H]1CN([C@@H](C)CO)C(=O)Cc2cc(NC(=O)CCCCCC(=O)Nc3ccccc3N)ccc2O[C@H]1CN(C)C(=O)Nc1ccccc1` the value was -5.33% (inactive).
Still for that read-out and setting: for `CCC(=O)N1[C@@H]2c3cccc(=O)n3C[C@H]1[C@H](CO)[C@H]2C(=O)NCc1ccccc1` the value was -16.7% (inactive).
On to `Cc1noc(C)c1NC(=O)N(C)C[C@H]1Oc2ccc(N(C)C)cc2C(=O)N([C@H](C)CO)C[C@@H]1C`, for which the activity change, negative = cytotoxicity is -11.8% (inactive).
With `C[C@H](NC(=O)C[C@@H]1C=C[C@H](NC(=O)CN2CCOCC2)[C@H](CO)O1)c1ccccc1`, the activity change, negative = cytotoxicity is -20.9% (inactive).
With `C[C@H]1CN([C@@H](C)CO)C(=O)Cc2cc(NS(=O)(=O)c3ccc(F)cc3)ccc2O[C@@H]1CN(C)S(=O)(=O)c1ccc(F)cc1`, the activity change, negative = cytotoxicity was -11.2% (inactive).
On the same count and under the same terms, the same measure for `C[C@@H]1CN([C@H](C)CO)C(=O)c2cc(-c3ccc(F)cc3)cnc2O[C@H]1CN(C)CC1CCCCC1`: 6.84% (inactive); for `COc1ccccc1C(=O)N1C[C@H]2[C@@H](c3ccccc31)[C@@H](CO)N2C(=O)Cc1ccccc1`: -6.87% (inactive).
In the case of `CCCNC(=O)[C@H]1[C@H](CO)[C@H]2Cn3c(cccc3=O)[C@@H]1N2C(=O)Nc1cc(F)ccc1F`, the activity change, negative = cytotoxicity is 42.5% (inactive).
Still for that read-out and setting: the same measure for `COCC(=O)NC[C@H]1N[C@H](CO)[C@H]1c1ccc(C2=CCCC2)cc1`: -13.3% (inactive); for `Cc1ccc(CSc2ncnc3c2cnn3-c2ccc(C)cc2)cc1`: -28.8% (inactive); for `COc1ccc(-n2ncc3c(SCC(=O)OC(C)C)ncnc32)cc1`: -5.94% (inactive).
Turning to `O=C(c1ccco1)N1N=C(c2cccs2)CC1c1cc([N+](=O)[O-])ccc1O` (stereo not given), the activity change, negative = cytotoxicity was 37.4% (inactive).
Take `Cc1ccc(S(=O)(=O)Nc2ccc3c(c2)C(=O)N([C@@H](C)CO)C[C@H](C)[C@H](CN(C)S(=O)(=O)c2ccc(Cl)cc2)OCCCC[C@@H](C)O3)cc1`: the activity change, negative = cytotoxicity was -26.9% (inactive).
For the compound `CN1C(=O)c2cc(NC(=O)NC3CCCC3)ccc2OC[C@H]2O[C@@H](CC(=O)NC3CCC3)CC[C@@H]21`, the activity change, negative = cytotoxicity is 0.295% (inactive).
`CC(=O)NC[C@@H]1[C@@H](c2ccc(C3=CCCC3)cc2)[C@@H](CO)N1C(=O)NC(C)C`: the activity change, negative = cytotoxicity was 6.26% (inactive).
On to `Cc1noc(C)c1S(=O)(=O)Nc1ccc2c(c1)C(=O)N([C@@H](C)CO)C[C@@H](C)[C@@H](CN(C)Cc1ccccc1)OCCCC[C@H](C)O2`, for which the activity change, negative = cytotoxicity is -12.2% (inactive).
Consider `C[C@@H]1CCCCO[C@H](CN(C)C(=O)c2ccncc2)[C@H](C)CN([C@H](C)CO)C(=O)c2cc(NC(=O)CCC(F)(F)F)ccc2O1`, for which the activity change, negative = cytotoxicity was -23.2% (inactive).
Still for that read-out and setting: the same measure for `Cc1cc(C)c(NC(=O)C2CCCCN2C)c(C)c1` (stereo not given): 10.1% (inactive); for `CC(C)NC(=O)Nc1ccc2c(c1)C(=O)N([C@@H](C)CO)C[C@H](C)[C@@H](CN(C)Cc1ccc3c(c1)OCO3)OCCCC[C@@H](C)O2`: -28.1% (inactive).
For `CC(C)C#Cc1ccc([C@@H]2[C@H](CO)N3CCCCN(C(=O)c4ccc5c(c4)OCO5)C[C@@H]23)cc1`, the activity change, negative = cytotoxicity is 28.2% (inactive).
On the same count and under the same terms, the same measure for `C[C@@H]1CCCCO[C@H](CN(C)Cc2ccncc2)[C@@H](C)CN([C@H](C)CO)C(=O)c2cc(N(C)C)ccc2O1`: -3.32% (inactive); for `C[C@H]1CN([C@@H](C)CO)C(=O)c2cc(Br)cnc2O[C@@H]1CN(C)Cc1ccccn1`: 22.1% (inactive).

The same experiment, now with this note: HEK293T viability, ATP luminescence (CellTiter-Glo), 48 h; at 35 µM (top of the series).
With `Cc1cc(C)c(N2CCCC2C(=O)Nc2cccc(C(F)(F)F)c2)c(C)c1` (stereo not given), the activity change, negative = cytotoxicity is -7.11% (inactive).
`Cc1ccc(NC(=O)C2(C)CCN2C(=O)CCC2CCCC2)cc1C` (stereo not given): the activity change, negative = cytotoxicity was -23.2% (inactive).

The experiment is the same for the next values; noted with them: HEK293T viability, ATP luminescence (CellTiter-Glo), 48 h; at 42 µM (top of the series).
On to `CCc1ccc(NC(=O)C2NC(=O)CC2c2ccccc2)cc1` (stereo not given), for which the activity change, negative = cytotoxicity is -46.7% (inactive).
